The values below come from US10780081B2, “Method of treating multiple sclerosis employing a LSD1-inhibitor” (ORYZON GENOMICS, S.A., priority 2016, dated 2020).

Data set [1] concerns Experimental Autoimmune Encephalomyelitis (EAE). In words: Experimental autoimmune encephalomyelitis (EAE) model, MOG35-55, daily clinical score. The class given is in vivo, C57BL/6 mice. Here is the method:
To induce chronic EAE by active immunization, C57BL/6 mice were immunized s.c. with 100 μg of myelin oligodendrocyte glycoprotein MOG35-55 emulsified in complete Freund's adjuvant (CFA) containing 4 mg/ml Mycobacterium tuberculosis H37 RA. Mice also received i.p. injections of 200 ng of pertussis toxin on days 0 and 2.
Mice were scored daily for signs of EAE according to the following clinical scoring system: 0, no clinical signs; 0.5, partial loss of tail tonicity; 1, complete loss of tail tonicity; 2, flaccid tail and abnormal gait; 3, hind leg paralysis; 4, hind leg paralysis with hind body paresis; 5, hind and fore leg paralysis; and 6, death.
Control mice were orally treated with vehicle [2% v/v Tween-80+98% HPβCD (13% w/v)] following the same regime of administration. Mice were scored daily for signs of EAE according to clinical scoring system described in Example 3.1. n=10 mice/group. […]. […] Mice were scored daily for signs of EAE, using the scores described in Example 3.1. Animals were sacrificed on day 26 postimmunization and samples were collected and processed as described below. n=10 mice/group.

The target in data set [2] is T1, Human recombinant LSD1 (Homo sapiens, UniProt O60341).
T1 construct: amino acids 158-end with N-terminal GST tag; GST (N); purchased BPS Bioscience Inc 50100
In words: LSD1 in vitro biochemical assay (Amplex Red, di-methylated H3-K4 peptide). Conditions: read-out: IC50 against LSD1. From the text:
In order to monitor LSD1 enzymatic activity and/or its inhibition rate by a test compound, di-methylated H3-K4 peptide (Anaspec) was chosen as a substrate. The demethylase activity was estimated, under aerobic conditions, by measuring the release of H2O2 produced during the catalytic process, using the Amplex® Red hydrogen peroxide/peroxidase assay kit (Invitrogen).
Tranylcypromine (Biomol International) was used as a control for inhibition. Within the experiment, each concentration of inhibitor was tested in duplicate. After leaving the enzyme interacting with the inhibitor, KM of di-methylated H3-K4 peptide was added to each reaction and the experiment was left for 30 minutes at 37° C. in the dark. The enzymatic reactions were set up in a 50 mM sodium phosphate, pH 7.4 buffer. […] The conversion of the Amplex® Red reagent to resorufin due to the presence of H2O2 in the assay, was monitored by fluorescence (excitation at 540 nm, emission at 590 nm) using a microplate reader (Infinite 200, Tecan). […] The maximum demethylase activity of LSD1 was obtained in the absence of inhibitor and corrected for background fluorescence in the absence of LSD1. The IC50 value of each inhibitor was calculated with GraphPad Prism Software.

Data set [3] relates to demyelination and inflammatory cell infiltration in spinal cord. The data set can be described thus: Histopathological analysis of spinal cord in EAE mice (Kluver-Barrera). The class given is in vivo, C57BL/6 mice. Conditions: 0.5 mg/kg p.o., day 26 postimmunization. Here is the method:
(§1) Mice were scored daily for signs of EAE, using the scores described in Example 3.1. Animals were sacrificed on day 26 postimmunization and samples were collected and processed as described below. n=10 mice/group.
(§2) Tissue collection and cell isolation. On day 26 postimmunization, spleen, draining lymph nodes (DLNs: cervicals, inguinals and axillaries), and spinal cord were removed. Spinal segments of the cervical and lumbar regions were prepared separately and processed for protein extraction, and histopathological analysis. Single-cell suspensions were obtained from spleen or pooled lymph nodes, the samples were homogenized and total number of cells was quantified using Neubauer chamber.
Processing of samples for histopathological analysis. Cervical and lumbar spinal cord segments were divided and processed for inclusion and sectioning in paraffin. Spinal cord segments were immediately fixed with buffered 10% formalin for 48h, dehydrated and included in paraffin using standard techniques. Transversal sections (4-μm thickness) were stained with Luxol fast blue, cresyl violet, and hematoxylin following the Klüver-Barrera technique and were analyzed for the presence of areas of demyelination and cell infiltration using a light microscope (Leica, DM2000).

In data set [4] the test system is IL-4, IL-6, IL-1beta, IP-10, MCP-1 in spinal cord. In words: Cytokine/chemokine levels in spinal cord of EAE mice by ELISA. The class given is in vivo, C57BL/6 mice. Conditions: 0.5 mg/kg p.o., day 26, vs vehicle. Here is the method: as §1
Protein extraction and cytokine/chemokine analysis. Proteins were extracted from cervical and lumbar segments of spinal cord by homogenization (50 mg tissue/[…]) in lysis buffer (50 mM Tris-HCl, pH 7.4, 0.5 mM DTT, and 10 μg/ml proteinase inhibitors PMSF, pepstatin, and leupeptin). Samples were centrifuged (20.000×g, 15 min, 4° C.) and the supernatants were assayed for protein concentration (using Bradford method) and for cytokine/chemokine contents by using specific sandwich ELISAs for IL-4, IL-6, IL-1beta, IP-10 and MCP-1, according to manufacturer's recommendations, using the following antibodies and recombinant proteins:
(§3) Statistical Analysis: Cell number analysis in lymph nodes and spleen: statistical differences are indicated as ***p<0.001 vs vehicle using ANOVA test. Cytokine/chemokine level analysis: statistical differences are indicated as: *p<0.05, **p<0.005, using Mann-Whitney test; unpaired t-test was used for IP-10 level analysis.

A short description of data set [5]: Tolerability at therapeutic doses. It counts as in vivo.
Data set [6] concerns immune cells in spleen and lymph nodes. The data set can be described thus: Number of immune cells in spleen and lymph nodes of EAE mice. The class given is in vivo, C57BL/6 mice. Conditions: 0.5 mg/kg p.o., day 26 postimmunization, vs vehicle. As to the method:
as §1, §2, §3

Data set [7] addresses T2, Human recombinant MAO-A (Homo sapiens, UniProt P21397).
T2 construct: purchased Sigma Aldrich
T2 sequence (P21397 1-527): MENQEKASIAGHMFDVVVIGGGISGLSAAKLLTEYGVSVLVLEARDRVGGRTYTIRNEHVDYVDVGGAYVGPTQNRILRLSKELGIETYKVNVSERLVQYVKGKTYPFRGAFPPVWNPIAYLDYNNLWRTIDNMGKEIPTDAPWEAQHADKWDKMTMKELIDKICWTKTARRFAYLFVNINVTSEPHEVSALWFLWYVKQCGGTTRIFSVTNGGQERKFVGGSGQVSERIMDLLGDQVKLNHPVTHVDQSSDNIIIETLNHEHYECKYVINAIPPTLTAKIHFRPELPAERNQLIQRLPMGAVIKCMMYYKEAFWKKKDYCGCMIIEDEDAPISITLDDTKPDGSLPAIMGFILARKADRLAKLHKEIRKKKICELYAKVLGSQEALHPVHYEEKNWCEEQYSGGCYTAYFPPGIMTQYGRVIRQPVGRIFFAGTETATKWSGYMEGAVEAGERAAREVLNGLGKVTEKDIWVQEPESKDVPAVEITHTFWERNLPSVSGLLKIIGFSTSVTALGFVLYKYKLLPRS
In words: MAO-A kynuramine fluorescence assay. The class given is biochemical. The source says:
Human recombinant monoamine oxidase proteins MAO-A and MAO-B were purchased from Sigma Aldrich. MAOs catalyze the oxidative deamination of primary, secondary and tertiary amines. In order to monitor MAO enzymatic activities and/or their inhibition rate by inhibitor(s) of interest, a fluorescence-based (inhibitor)-screening assay was set up. 3-(2-Aminophenyl)-3-oxopropanamine (kynuramine dihydrobromide, Sigma Aldrich), a non fluorescent compound was chosen as a substrate. Kynuramine is a non-specific substrate for both MAO-A and MAO-B activities. While undergoing oxidative deamination by MAO activities, kynuramine is converted into 4-hydroxyquinoline (4-HQ), a resulting fluorescent product.
The monoamine oxidase activity was estimated by measuring the conversion of kynuramine into 4-hydroxyquinoline. […]
After leaving the enzyme(s) interacting with the inhibitor, KM of kynuramine was added to each reaction for MAO-B and MAO-A assay respectively, and the reaction was left for 1 hour at 37° C. in the dark. […] The conversion of kynuramine to 4-hydroxyquinoline, was monitored by fluorescence (excitation at 320 nm, emission at 360 nm) using a microplate reader (Infinite 200, Tecan). Arbitrary units were used to measure levels of fluorescence produced in the absence and/or in the presence of inhibitor.
The IC50 values of each inhibitor were calculated with GraphPad Prism Software.

The structures appear in SMILES notation.

`Fc1ccccc1[C@@H]1C[C@H]1NC1CCNCC1` [ORY-LSD1, N-((1R,2S)-2-(2-fluorophenyl)cyclopropyl)piperidin-4-amine, reference compound]: in data set [1] (0.06 and 0.180 mg/kg p.o., same scheme as Example 3.1), the “Effect on EAE clinical score” value is listed as “clear tendency for improvement”.
What is called IC50 is the concentration that gives 50% inhibition. With `Nc1nnc(CN[C@@H]2C[C@H]2c2ccc(OCc3ccccc3)cc2)o1` (single isomer, unassigned) [Compound 1, (−) 5-((((trans)-2-(4-(benzyloxy)phenyl)cyclopropyl)amino)methyl)-1,3,4-oxadiazol-2-amine], in data set [2], the half-inhibitory concentration (IC50) was determined as 90 nM. In data set [3], the “Inflammatory cell infiltration and demyelination areas in cervical and lumbar spinal cord” value is on record as “no inflammatory cell infiltration nor demyelination areas were observed”; the “Mean number of demyelination plaques in cervical and lumbar spinal cord” value is recorded as “absent or greatly reduced demyelination”. Besides, the “Development of EAE, disease incidence and severity by daily clinical score” value in data set [1] (0.5 mg/kg p.o., Example 4) was “greatly inhibited the development of EAE”. In data set [1] (1 or 3 mg/kg p.o., days 12-16 and 19-23 postimmunization), the “Development of EAE, disease incidence and severity by daily clinical score” value is reported as “greatly inhibited the development of EAE”. Besides, in data set [1] (1 or 3 mg/kg p.o., therapeutic regime), the “Mice displaying mild symptoms” value was 40-70%. Also, in data set [1] (1 or 3 mg/kg p.o., 40 days after disease onset), the “Mice almost completely recovered” value is given as 30%. Moreover, the “Dose at which clinical score in EAE is reduced (as low as)” value in data set [1] (p.o., tested at 1, 0.5 and 0.05 mg/kg) is no more than 0.05 mg/kg. Moreover, in data set [4], the “IL-1 beta level in spinal cord” value is given as “reduced”, the “IL-4 level in spinal cord” value was “significantly increased”, the “IL-6 level in spinal cord” value is recorded as “reduced” and the “IP-10 level in spinal cord” value is listed as “significantly reduced”. Further, the “MCP-1 level in spinal cord” value in data set [4] was “significantly reduced”. For the same compound, the “Tolerability on long-term treatment” value in data set [5] (0.5 mg/kg p.o., mice) is “well-tolerated”. In data set [5] (at therapeutically effective doses, no method or species printed), the “Effects on hematology or circulating lymphocyte counts, gastro-intestinal toxicity” value is “do not produce clinically relevant effects on hematology or circulating lymphocyte counts”. Also, the “Number of immune cells retained in spleen and lymph nodes” value in data set [6] is “significant increase”. Further, the 50% inhibitory concentration (IC50) in data set [7] is 5300 nM.
